Values of other authors in patent publication US6420614B1, “Process for obtaining 3′-epilutein” (Industrial Organica, S.A. DE C.V., priority 2000, dated 2002).

System: egg yolk
Conditions: relative potency of zeaxanthin stereoisomers; (3R,3′R)-zeaxanthin = 100%

Compound	potency in pigmenting of egg yolk
CC1=C(/C=C/C(C)=C/C=C/C(C)=C/C=C/C=C(C)/C=C/C=C(C)/C=C/C2=C(C)C[C@@H](O)CC2(C)C)C(C)(C)C[C@H](O)C1 [(3R, 3′R)-zeaxanthin (III), (3R,3′R)-zeaxanthin]	100%
CC1=C(/C=C/C(C)=C/C=C/C(C)=C/C=C/C=C(C)/C=C/C=C(C)/C=C/C2=C(C)C[C@H](O)CC2(C)C)C(C)(C)C[C@H](O)C1 [(3R, 3′S)-zeaxanthin (meso, II), (3R,3′S)-zeaxanthin]	37%
CC1=C(/C=C/C(C)=C/C=C/C(C)=C/C=C/C=C(C)/C=C/C=C(C)/C=C/C2=C(C)C[C@@H](O)CC2(C)C)C(C)(C)C[C@H](O)C1 [(3RS, 3′SR)-zeaxanthin (racemic), (3RS, 3′SR)-zeaxanthin]	92%
CC1=C(/C=C/C(C)=C/C=C/C(C)=C/C=C/C=C(C)/C=C/C=C(C)/C=C/C2=C(C)C[C@H](O)CC2(C)C)C(C)(C)C[C@@H](O)C1 (single isomer, unassigned) [(3S, 3′S)-zeaxanthin (enantiomer)]	86%
